According to article PMC9503518, “Antibacterial and Antifungal Properties of a Novel Antimicrobial Peptide GK-19 and Its Application in Skin and Soft Tissue Infections Induced by MRSA or Candida albicans” (Pharmaceutics, 2022):
In brackets after ≈: the same amount, converted by molar mass. Where a name gives a salt, the structure may show the parent alone. Where no end group is shown, it is not given here.

What was measured:
[1] = unstable in serum; cited from earlier work
Text: The venom of scorpions, which has been proven to kill Gram-negative and Gram-positive bacteria, fungi, viruses and even tumor cells, are a rich source of antimicrobial peptides. Androctonus amoreuxi Antimicrobial Peptide 1 (AamAP1), identified from the venom-derived cDNA library of the North African scorpion, Androctonus amoeruxi, is a new type of host defense peptide. With broad-spectrum antimicrobial properties, it has been posited that AamAP1 kills bacteria cells through membrane disruption, which will not induce bacterial resistance. However, there are still some disadvantages in us ...

MRSA = system: MRSA
Protocol: (§1) The scalded mice models combined with SSTIs by MRSA or C. albicans were constructed. Fifty normal male Kunming mice (5–6 weeks old) weighing ~25 g were anesthetized by isoflurane using a small animal anesthesia machine (R640, RWD Life Science, China). After skin preparation and disinfection, a custom-made circular iron (diameter: 8 mm) (shown in Figure S4) was applied to both sides of the spine of the mice for 10 s at 300 °C, resulting in four scalded wounds. Mice were injected subcutaneously with 5 mg/kg meloxicam (Aladdin, Shanghai, China) for four days (once per day) after scalding for pain relief. Two days after scalding, the skin tissues of the scalded areas were removed carefully, and about 30 μL of 1 × 10^7 CFU/mL of MRSA or C. albicans was applied evenly onto the surfaces of the wounds. The mice were returned to the original feeding environment after the microbial fluid was completely absorbed (1.5–2 h), with two mice per cage. Corncob granules with SPF level were used as padding.
(§2) Two days after microbe inoculating, the scalded wounds of each mouse were divided into four groups randomly. […] The mice were returned to the original feeding environment after the solutions were completely absorbed. The treatment lasted for 12–16 days. Photographs of the wound areas were taken every two days using an iPhone 11 and the wound areas were measured every two days using Image J software (152-win-java8, Bethesda, MD, USA). The average wound areas on day two were used as the reference (100% unhealed) to normalized wound areas. Skin tissues of the wound areas were removed carefully at different time points (n = 5 for each time point) and weighted in a sterile environment. For MRSA infection, 10 mg of the wound tissues was dispersed into 1000 μL of sterile saline solution and the tissue solution was ground into suspension in a tissuelyser (Tissuelyser LT, Servicebio). Then, the tissue suspension was diluted with sterile saline solution 10 times and plated on MHA with a sample volume of 50 μL. For C. albicans infection, 10 mg of the wound tissues was dispersed into 200 μL of sterile saline solution and the tissue solution was also ground into suspension in the tissuelyser. The tissue suspension was then plated on PDA directly with a sample volume of 20 μL. After culturing overnight, the colonies were counted using Image J software or human eyes. In addition, the skin tissues of the wound area were removed carefully at different time points and dispersed into a 4% paraformaldehyde solution for further use.
(§3) The hematoxylin and eosin staining in this study was carried out by Servicebio (Wuhan, China). Briefly, the obtained skin tissues were soaked in 4% paraformaldehyde solution (Beyotime, China) and fixed for more than 24 h. Then, they were dehydrated and embedded with paraffin, and tissue sections having thicknesses of 4 μm were prepared. After deparaffinization and rehydration, hematoxylin and eosin staining was performed.

[2] = Peptide stability in rat serum by HPLC; assay type: in vitro ADME; conditions: 10 mg/mL in rat serum, 37 °C, 200 rpm, repeated three times
Protocol: (§4) Antimicrobial peptides were dissolved in water or rat serum with a concentration of 10 mg/mL. The solution was incubated at 37 °C, 200 rpm for different time periods, and diluted 50 times for the HPLC analysis. In water, the incubation time was 0 h and 48 h. In rat serum, the incubation time was 0, 2, 4, 7, 12, 24 or 48 h. Each incubation condition was repeated three times. HPLC was conducted on a Waters HPLC system, which consisted of a 2996 photodiode array detector, a 2695 separation module and a temperature control column oven. Column: Sinochrom ODS-BP, 5 μm, 4.6 × 250 mm (Dalian Elite Analytical Instruments Co., Ltd., Dalian, China). Mobile phase: A: 100% ACN + 0.1% TFA; B: 100% Water + 0.1% TFA. Gradient elution: 0–20 min, 95% B–100% A; 20–25 min, 100% A. Detection wavelength: 220 nm. Flow rate: 1 mL/min. Sample volume: 50 μL (0.2 mg/mL).

[3] = system: Candida krusei (C. krusei, ATCC6258); assay type: cell-based; conditions: 12 h, absorbance at 600 nm, n = 5
Text: (§5) Pseudomonas aeruginosa (P. aeruginosa, ATCC27853), Methicillin-Resistant Staphylococcus aureus (MRSA, 2104270609, clinically isolated strain), Escherichia coli (E. coli, ATCC25922), Klebsiella pneumoniae (K. pneumoniae, ATCC700603), Enterococcus faecalis (E. faecalis, ATCC29212), Candida krusei (C. krusei, ATCC6258), Candida albicans (C. albicans, ATCC90028), and Candida glabrata (C. glabrata, ATCCMYA-2950) were obtained from the First Affiliated Hospital of Xi’an Jiaotong University. Bacterial strains were cultured in MHA or MHB. Fungal strains were cultured in PDA or PDB.
(§6) Strains were incubated in MHB or PDB. After growing for 12–16 h at 37 °C, 200 rpm, 100 μL of 1 × 10^6 CFU/mL of the strains was seeded into 96-well plates and incubated with fresh culture medium containing various antimicrobial peptides (peptide concentration: 0, 0.5, 1.0, 2.0, 3.0, 5.0, 10, 15 or 20 μM) for 12 h. Each concentration was repeated five times. Absorbance at 600 nm was measured using the Multilabel Reader Varioskan Flash (Thermo Fisher). […] (1)

[4] = system: Candida glabrata (C. glabrata, ATCCMYA-2950); assay type: cell-based; conditions: 1 × 10^6 CFU/mL, PDB, 12 h, peptide 0-20 μM, absorbance at 600 nm, n = 5
Text: as §5, §6

[5] = system: Candida albicans (C. albicans, ATCC90028); assay type: cell-based; conditions: 1 × 10^6 CFU/mL, PDB, 12 h, peptide 0-20 μM, absorbance at 600 nm, n = 5
Text: as §5, §6

[6] = system: Methicillin-Resistant Staphylococcus aureus (MRSA, 2104270609, clinically isolated strain); assay type: cell-based; conditions: 1 × 10^6 CFU/mL, MHB, 12 h, peptide 0-20 μM, absorbance at 600 nm, n = 5
Text: as §5, §6

[7] = system: Pseudomonas aeruginosa (P. aeruginosa, ATCC27853); assay type: cell-based; conditions: 1 × 10^6 CFU/mL, MHB, 12 h, peptide 0-20 μM, absorbance at 600 nm, n = 5
Text: as §5, §6

[8] = system: Enterococcus faecalis (E. faecalis, ATCC29212); assay type: cell-based; conditions: 1 × 10^6 CFU/mL, MHB, 12 h, peptide 0-20 μM, absorbance at 600 nm, n = 5
Text: as §5, §6

[9] = system: Escherichia coli (E. coli, ATCC25922); assay type: cell-based; conditions: 1 × 10^6 CFU/mL, MHB, 12 h, peptide 0-20 μM, absorbance at 600 nm, n = 5
Text: as §5, §6

[10] = system: Klebsiella pneumoniae (K. pneumoniae, ATCC700603); assay type: cell-based; conditions: 1 × 10^6 CFU/mL, MHB, 12 h, peptide 0-20 μM, absorbance at 600 nm, n = 5
Text: as §5, §6

[11] = Peptide stability in water by HPLC; assay type: physicochemical; conditions: 10 mg/mL in water, 37 °C, 200 rpm, 0 and 48 h, HPLC 220 nm, repeated three times
Protocol: as §4

C. albicans = conditions: topical 50 μM twice a day
Protocol: as §1, §2, §3

[12] = C. albicans-infected scald wounds, mice, n = 10
[13] = colony count of wound tissue on PDA, n = 5

FLFKLIPKAIKKLISKFK [AamAP1-Lysine]
predicted half-life [1]: less than two hours

CCC[C@@H]1C[C@@H](C(=O)N[C@@H]([C@H]2O[C@H](SC)[C@H](O)[C@@H](O)[C@H]2O)[C@H](C)Cl)N(C)C1 [CDHC, clindamycin hydrochloride]
wound area healed on day eight (MRSA; MRSA-infected scald wounds, mice, topical 50 μM twice a day, day 2 area = 100% unhealed, n = 10): more than 45% | unhealed wounds on day 16 (MRSA; MRSA-infected scald wounds, mice, topical 50 μM twice a day, n = 10): completely disappeared

CC[C@H](C)[C@H](NC(=O)[C@H](C)NC(=O)[C@H](Cc1c[nH]cn1)NC(=O)[C@@H]1CCCN1C(=O)[C@@H](NC(=O)[C@H](CC(C)C)NC(=O)[C@H](CO)NC(=O)[C@H](Cc1ccccc1)NC(=O)[C@H](CC(C)C)NC(=O)[C@@H](N)Cc1ccccc1)[C@@H](C)CC)C(=O)NCC(=O)NCC(=O)N[C@@H](CC(C)C)C(=O)N[C@H](C(=O)N[C@@H](CO)C(=O)N[C@@H](C)C(=O)N[C@@H](Cc1ccccc1)C(=O)N[C@@H](CCCCN)C(=O)O)[C@@H](C)CC [AamAP1, Androctonus amoreuxi Antimicrobial Peptide 1, reference compound]
metabolised at 7 h, 10 mg/mL ([2]; 7 h, HPLC peak area 220 nm, read-out: peptide degraded after seven hours of co-incubation with rat serum): > 65% | change of HPLC peak after incubation in rat serum for two hours ([2]; two hours, HPLC 220 nm): position of its chromatographic peak moved backward | Minimum inhibitory concentration (MIC), C. krusei ([3]; 1 × 10^6 CFU/mL, PDB, peptide 0-20 μM): 20 µM (≈ 38.6 µg/mL) | inhibition of C. krusei ([3]; within 0-20 μM): 90% | Minimum inhibitory concentration (MIC), C. glabrata [4]: > 20 µM | Minimum inhibitory concentration (MIC), C. albicans [5]: > 20 µM | Minimum inhibitory concentration (MIC), MRSA [6]: > 20 µM | Minimum inhibitory concentration (MIC), P. aeruginosa [7]: > 20 µM | Minimum inhibitory concentration (MIC), E. faecalis [8]: > 20 µM | Minimum inhibitory concentration (MIC), E. coli [9]: > 20 µM | Minimum inhibitory concentration (MIC), K. pneumoniae [10]: > 20 µM | time for which structural stability was retained in water [11]: ≥ 48 h | predicted half-life [1]: less than two hours | MRSA suppressed (inhibition rate) at day eight compared with saline solution groups (MRSA; mouse, in vivo, 2 h, 50 μM): more than 90%

OC(Cn1cncn1)(Cn1cncn1)c1ccc(F)cc1F [FCZ, fluconazole]
area of the wounds healed on day 10 (C. albicans; [12]): more than 95% | unhealed wounds on day 12 (C. albicans; [12]): completely disappeared | C. albicans in wound tissue on day 12 (C. albicans; [13]): no C. albicans detected | C. albicans suppressed (inhibition rate) at day eight compared with saline solution groups (C. albicans; [13]): ~ 98%
